Test system: Akt
Assay: Akt activation in TAC hearts (Western blot, activity assay)
Type: in vivo, mouse
Details: 1 and 9 week TAC
Method: Protein was prepared from snap-frozen heart tissue using extraction buffer as described previously^90. Antibodies included calcineurin (1:2000 dilution, BD Transduction Laboratories (San Diego, Calif.), GSK3β, Ser9-phospho-GSK313, Akt, Ser473-phospho-Akt, ERK, Thr202/Thr204-phospho-ERK (1:1000 dilution, Cell Signaling Technology, Beverly, Mass.). Primary antibody binding was visualized by horse radish peroxidase-conjugated secondary antibodies and enhanced chemiluminescence (Pierce, Rockford, Ill.).
PI3Kα activity was assessed by Elisa assay following immunoprecipitation of PI3K (Seize X IP Kit, Pierce) using a p85α monoclonal antibody (Cell Signaling), with activity measured by fluorescence polarization (Molecular Devices, Perkin-Elmer Victor 3 plate reader). Akt activity (IP with s473-pAkt Ab, GSK-3 fusion protein substrate) was performed using a commercial kit (Cell Signaling Technology, Beverly, Mass.). PKG-1 activity was assayed by calorimetric analysis, CycLex (Clinisciences, Montrouge, FR) from whole heart lysates.

CCCc1nn(C)c2c(=O)[nH]c(-c3cc(S(=O)(=O)N4CCN(C)CC4)ccc3OCC)nc12 [sildenafil]
TAC-increased Akt activity: suppressed this response at both time points to near baseline

Source: patent publication US8299083B2, “PDE5 inhibitor compositions and methods for treating cardiac indications” (The Johns Hopkins University, priority 2004, dated 2012)
